Here are results for 1 molecule from paper PMC8871619, “Pogostone inhibits the activity of CYP3A4, 2C9, and 2E1 in vitro” (Pharmaceutical Biology, 2021).

pIC50, pKi: −log10 of the molar value.

Data set [1] addresses T1, CYP2C9 (Homo sapiens, UniProt P11712).
T1 construct: Pooled human liver microsomes (HLMs) were purchased from BD Biosciences; tissue BD Biosciences; host or cells: pooled human liver microsomes
Briefly: Time-dependent inhibition study of CYP2C9 in human liver microsomes. The settings on record: 20 μM pogostone, 0-30 min, 1 mg/mL HLMs. The format is in vitro ADME. The protocol: (§1) The effect of incubation on the inhibitory effect of pogostone was evaluated by incubating for 0, 5, 10, 15, and 30 min at 37 °C. The concentration of pogostone in the time-dependent inhibition study was 20 μM with the 1 mg/mL HLMs. After incubation, an aliquot (20 μL) was transferred to another incubation tube (a final volume of 200 μL) containing an NADPH-generating system and probe substrates whose final concentrations were approximate to Km. Then, further incubations were performed to measure the residual activity. After being incubated for 10 and 30 min, the reactions were terminated by adding a 100 μL acetonitrile internal standard mix and then placed on ice; the corresponding metabolites were determined by HPLC.
Background: Liver microsomes are vesicles of endoplasmic reticulum, rich in cytochrome P450 enzymes.

The target of data set [2] is T2, CYP2E1 (Homo sapiens, UniProt P05181).
T2 construct: Pooled human liver microsomes (HLMs) were purchased from BD Biosciences; tissue BD Biosciences; host or cells: pooled human liver microsomes
Briefly: Time-dependent inhibition study of CYP2E1 in human liver microsomes. It is filed as in vitro ADME. The settings on record: 20 μM pogostone, 0-30 min, 1 mg/mL HLMs. The protocol: as §1

Details of data set [3]: method as in Chen et al. [2013]. To be noted: rats, oral administration, 5 mg/kg pogostone; ref Chen et al. [2013]; cited from earlier work.
In data set [4] the target is T2, CYP2E1. Nature of the data set: Inhibition of CYP2E1 (chlorzoxazone 6-hydroxylation) in human liver microsomes. It is filed as in vitro ADME. The protocol: (§2) The effect of pogostone on the activity of CYP450s was investigated with probe reactions (summarized in Table 1) in HLMs in accordance with previous studies (Zhang et al. [2007], [2020]). All incubations were conducted in triplicate with a volume of 200 μL, containing 100 mM potassium phosphate buffer (pH 7.4), NADPH-generating system (1 mM NADP^+, 10 mM glucose-6-phosphate, 1 U/mL of glucose-6-phosphate dehydrogenase, and 4 mM MgCl2), corresponding probe substrates, HLM, and 100 μM pogostone or positive inhibitors. The concentrations of positive inhibitors were: 10 μM furafylline for CYP1A2, 1 μM ketoconazole for CYP3A4, 10 μM tranylcypromine for CYP2A6, 50 μM clomethiazole for CYP2E1, 10 μM quinidine for CYP2D6, 10 μM sulphaphenazole for CYP2C9, 50 μM tranylcypromine for CYP2C19, and 5 μM montelukast for CYP2C8.
(§3) A 3 min preincubation was performed at 37 °C before the reactions were initiated by the addition of the NADPH-generating system. After the incubation, 100 μL acetonitrile or 10% trichloroacetic (for CYP2A6) was added to terminate the reactions and placed on ice. The mixture was centrifuged at 12,000 rpm for 10 min, and an aliquot (50 μL) of supernatant was transferred for corresponding metabolites analysis with HPLC.
(§4) The effect of pogostone on the activity of CYP450s was first investigated with 100 μM pogostone in HLMs. Then, the CYPs, of which the activity was inhibited by pogostone were incubated with 0, 2.5, 5, 10, 25, 50, and 100 μM pogostone and different probe substrates (20, 40, 60, and 100 μM testosterone for CYP3A4, 5, 10, 15, and 20 μM diclofenac for CYP2C9, or 25, 50, 150, and 250 μM chlorzoxazone for CYP2E1) to obtained the corresponding kinetic parameters, such as IC50 and Ki values.
(§5) The Lineweaver-Burk plots were used to obtain enzyme kinetic parameters by the least-squares linear regression of the inverse substrate concentration versus the inverse velocity. Inhibition data from the experiments that were conducted using multiple compound concentrations were represented by Dixon plots, and inhibition constant (Ki) values were calculated using non-linear regression according to the following equation: V=(VmaxS)/(Km(1+I/Ki)+S) where I is the concentration of the compound, Ki is the inhibition constant, S is the concentration of the substrate and Km is the substrate concentration at half the maximum velocity (Vmax) of the reaction. The mechanism of the inhibition was inspected using the Lineweaver–Burk plots and the enzyme inhibition models. The data comparison was performed using the Student’s t-test and performed using IBM SPSS statistics 20 (SPSS Inc., Chicago, IL, USA).

Data set [5] has as its target T3, CYP3A4 (Homo sapiens, UniProt P08684).
T3 construct: Pooled human liver microsomes (HLMs) were purchased from BD Biosciences; tissue BD Biosciences; host or cells: pooled human liver microsomes
Nature of the data set: Time-dependent inhibition study of CYP3A4 in human liver microsomes. It is filed as in vitro ADME. The protocol: as §1
Further experiments were performed to quantify the time-dependent inhibition by the KI and Kinact values. The incubation was conducted with a higher substrate concentration, which was about 4-fold to Km and 0, 2, 5, 10, 20, and 50 μM pogostone for 0, 5, 10, 15, and 30 min. A two-step incubation scheme was performed as described above.

Data set [6] has as its target T3, CYP3A4. Nature of the data set: Inhibition of CYP3A4 (testosterone 6β-hydroxylation) in human liver microsomes. The format is in vitro ADME. On the procedure:
as §2, §3, §4, §5

Data set [7] has as its target T1, CYP2C9. Nature of the data set: Inhibition of CYP2C9 (diclofenac 4′-hydroxylation) in human liver microsomes. It is filed as in vitro ADME. On the procedure:
as §2, §3, §4, §5

The mark [8] stands for this setting: 100 μM pogostone, HLMs, p < 0.05.
The mark [9] stands for this setting: HLMs, 0-50 μM pogostone, 0-30 min preincubation, substrate about 4-fold Km.

T2 sequence (P05181 whole entry): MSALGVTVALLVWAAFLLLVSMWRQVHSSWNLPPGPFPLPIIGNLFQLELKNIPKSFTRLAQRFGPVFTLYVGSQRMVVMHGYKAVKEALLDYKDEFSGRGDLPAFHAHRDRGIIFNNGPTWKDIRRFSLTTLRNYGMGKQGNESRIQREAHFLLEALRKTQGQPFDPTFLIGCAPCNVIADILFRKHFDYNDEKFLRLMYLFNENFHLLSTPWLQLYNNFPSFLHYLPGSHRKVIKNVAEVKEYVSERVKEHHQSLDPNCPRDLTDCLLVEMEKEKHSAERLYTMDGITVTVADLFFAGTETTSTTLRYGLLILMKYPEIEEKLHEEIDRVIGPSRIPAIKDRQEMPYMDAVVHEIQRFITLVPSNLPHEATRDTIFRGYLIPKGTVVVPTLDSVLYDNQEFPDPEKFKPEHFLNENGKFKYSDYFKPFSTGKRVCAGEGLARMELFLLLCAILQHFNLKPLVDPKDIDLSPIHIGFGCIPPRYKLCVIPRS
T3 sequence (P08684 whole entry): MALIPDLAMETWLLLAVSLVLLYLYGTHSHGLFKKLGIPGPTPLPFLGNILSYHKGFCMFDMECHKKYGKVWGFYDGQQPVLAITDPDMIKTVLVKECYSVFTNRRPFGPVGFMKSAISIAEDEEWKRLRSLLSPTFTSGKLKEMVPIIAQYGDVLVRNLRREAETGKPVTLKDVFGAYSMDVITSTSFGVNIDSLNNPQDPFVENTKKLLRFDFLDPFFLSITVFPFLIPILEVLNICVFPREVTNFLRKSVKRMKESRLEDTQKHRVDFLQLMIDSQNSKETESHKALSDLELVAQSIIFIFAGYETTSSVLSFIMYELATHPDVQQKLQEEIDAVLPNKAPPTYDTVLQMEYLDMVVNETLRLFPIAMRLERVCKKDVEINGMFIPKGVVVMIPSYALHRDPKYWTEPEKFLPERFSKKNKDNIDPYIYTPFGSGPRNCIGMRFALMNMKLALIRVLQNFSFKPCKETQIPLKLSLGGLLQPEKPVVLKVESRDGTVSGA
T1 sequence (P11712 whole entry): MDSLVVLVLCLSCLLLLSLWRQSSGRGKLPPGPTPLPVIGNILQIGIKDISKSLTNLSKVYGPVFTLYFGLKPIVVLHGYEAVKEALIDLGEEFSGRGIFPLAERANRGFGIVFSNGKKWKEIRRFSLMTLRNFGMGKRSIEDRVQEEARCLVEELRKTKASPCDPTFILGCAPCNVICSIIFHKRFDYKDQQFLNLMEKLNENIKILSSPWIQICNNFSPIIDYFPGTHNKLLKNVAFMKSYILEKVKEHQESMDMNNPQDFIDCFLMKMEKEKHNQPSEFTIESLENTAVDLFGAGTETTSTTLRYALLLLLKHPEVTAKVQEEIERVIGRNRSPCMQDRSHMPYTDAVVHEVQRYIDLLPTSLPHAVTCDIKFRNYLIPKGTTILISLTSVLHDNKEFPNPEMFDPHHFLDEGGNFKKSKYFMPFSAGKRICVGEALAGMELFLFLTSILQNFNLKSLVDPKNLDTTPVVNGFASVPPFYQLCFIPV

For the molecule `Cc1cc(O)c(C(=O)CCC(C)C)c(=O)o1` [pogostone, Pogostone], the “Effect of incubation time on inhibition of CYP2C9” value in data set [1] is “no significant effect”. Further, in data set [2], the “Effect of incubation time on inhibition of CYP2E1” value is reported as “no significant effect”. Further, the Cmax (in general, the highest concentration seen after dosing) in data set [3] is 28990 ng/mL. In addition, the “Activity of CYP2E1 compared with negative control” value in data set [4] (setting [8]) was “significantly inhibited”. The pIC50 (as a rule, the IC50 on a negative log10 scale, so that one unit is a factor of ten) in data set [4] (HLMs, 0-100 μM pogostone, chlorzoxazone substrate) was 4.83; in data set [6] (HLMs, 0-100 μM pogostone, testosterone substrate) it was 4.94; in data set [7] (HLMs, 0-100 μM pogostone, diclofenac substrate), 4.92. For the same molecule, the pKi – broadly, the negative decadic logarithm of the Ki, by convention in mol/L – was 5.12 in data set [4] (HLMs, Lineweaver-Burk, 25-250 μM chlorzoxazone); 5.24 in data set [6] (HLMs, Lineweaver-Burk, 20-100 μM testosterone); 5.19 in data set [7] (HLMs, Lineweaver-Burk, diclofenac). Further, the “Type of inhibition of CYP2E1” value in data set [4] (Lineweaver-Burk analysis) is “competitive”. Besides, the “Effect of incubation time on inhibition of CYP3A4” value in data set [5] (20 μM pogostone, 0-30 min, 1 mg/mL HLMs) is “time-dependent”. This molecule also registered a KI value of CYP3A4 (time-dependent inhibition) in data set [5] (setting [9]) of 5.86 µM. In data set [5] (setting [9]), the “Kinact value of CYP3A4 (time-dependent inhibition)” value came to 0.056 min⁻¹. In addition, in data set [6] (setting [8]), the “Activity of CYP3A4 compared with negative control” value is reported as “significantly inhibited”. In addition, the “Type of inhibition of CYP3A4” value in data set [6] (Lineweaver-Burk analysis) is “non-competitive”. The “Activity of CYP2C9 compared with negative control” value in data set [7] (setting [8]) is reported as “significantly inhibited”. In data set [7] (Lineweaver-Burk analysis), the “Type of inhibition of CYP2C9” value was “competitive”.
